Target: Aβ42 (Homo sapiens, UniProt P05067)
Test: Th-T (thioflavin-T) assay of Aβ42 aggregation
Assay type: biochemical
Conditions: for Th-T assay plate reading, mean of three wells (Supplementary Fig. 47): source data, Ab alone and No Ab as controls

Chain of Aβ42 (P05067 672-713): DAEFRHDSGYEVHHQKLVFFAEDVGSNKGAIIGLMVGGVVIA

## C=C1CCC2C(C)(CC(=O)C=C(C)C)C(O)CCC2(C)C1Cc1c(O)c(C)c(C)oc1=O (centres unmarked) [Compound 7]
Aβ42 aggregation time course, reading M117
  Th-T fluorescence, mean of three wells: 3.444
Aβ42 aggregation time course, reading M118
  Th-T fluorescence, mean of three wells: 3.462
Aβ42 aggregation time course, reading M119
  Th-T fluorescence, mean of three wells: 3.421
Aβ42 aggregation time course, reading M120
  Th-T fluorescence, mean of three wells: 3.485
Aβ42 aggregation time course, reading M121
  Th-T fluorescence, mean of three wells: 3.437
Aβ42 aggregation time course, reading M122
  Th-T fluorescence, mean of three wells: 3.4838
Aβ42 aggregation time course, reading M123
  Th-T fluorescence, mean of three wells: 3.463
Aβ42 aggregation time course, reading M124
  Th-T fluorescence, mean of three wells: 3.451
Aβ42 aggregation time course, reading M125
  Th-T fluorescence, mean of three wells: 3.454
Aβ42 aggregation time course, reading M126
  Th-T fluorescence, mean of three wells: 3.465
Aβ42 aggregation time course, reading M127
  Th-T fluorescence, mean of three wells: 3.446
Aβ42 aggregation time course, reading M128
  Th-T fluorescence, mean of three wells: 3.459
Aβ42 aggregation time course, reading M129
  Th-T fluorescence, mean of three wells: 3.461
Aβ42 aggregation time course, reading M130
  Th-T fluorescence, mean of three wells: 3.435
Aβ42 aggregation time course, reading M131
  Th-T fluorescence, mean of three wells: 3.434
Aβ42 aggregation time course, reading M132
  Th-T fluorescence, mean of three wells: 3.446
Aβ42 aggregation time course, reading M133
  Th-T fluorescence, mean of three wells: 3.459
Aβ42 aggregation time course, reading M134
  Th-T fluorescence, mean of three wells: 3.427
Aβ42 aggregation time course, reading M135
  Th-T fluorescence, mean of three wells: 3.416
Aβ42 aggregation time course, reading M136
  Th-T fluorescence, mean of three wells: 3.414
Supplementary Fig. 47, reading M137
  Th-T fluorescence, mean of three wells: 3.399
Supplementary Fig. 47, reading M138
  Th-T fluorescence, mean of three wells: 3.412
Supplementary Fig. 47, reading M139
  Th-T fluorescence, mean of three wells: 3.411
Supplementary Fig. 47, reading M140
  Th-T fluorescence, mean of three wells: 3.433
Supplementary Fig. 47, reading M141
  Th-T fluorescence, mean of three wells: 3.413
Supplementary Fig. 47, reading M142
  Th-T fluorescence, mean of three wells: 3.437
Supplementary Fig. 47, reading M143
  Th-T fluorescence, mean of three wells: 3.394
Supplementary Fig. 47, reading M144
  Th-T fluorescence, mean of three wells: 3.432
Supplementary Fig. 47, reading M145
  Th-T fluorescence, mean of three wells: 3.431
Supplementary Fig. 47 source data, measurement M37 of time course
  Th-T fluorescence, mean of three wells: 3.548
Supplementary Fig. 47 source data, measurement M38 of time course
  Th-T fluorescence, mean of three wells: 3.519
Supplementary Fig. 47 source data, measurement M39 of time course
  Th-T fluorescence, mean of three wells: 3.507
Supplementary Fig. 47 source data, measurement M40 of time course
  Th-T fluorescence, mean of three wells: 3.528
Supplementary Fig. 47 source data, measurement M41 of time course
  Th-T fluorescence, mean of three wells: 3.5472
Supplementary Fig. 47 source data, measurement M42 of time course
  Th-T fluorescence, mean of three wells: 3.534
Supplementary Fig. 47 source data, measurement M43 of time course
  Th-T fluorescence, mean of three wells: 3.54
Supplementary Fig. 47 source data, measurement M44 of time course
  Th-T fluorescence, mean of three wells: 3.555
Supplementary Fig. 47 source data, measurement M45 of time course
  Th-T fluorescence, mean of three wells: 3.57
Supplementary Fig. 47 source data, measurement M46 of time course
  Th-T fluorescence, mean of three wells: 3.557
Supplementary Fig. 47 source data, measurement M47 of time course
  Th-T fluorescence, mean of three wells: 3.602
Supplementary Fig. 47 source data, measurement M48 of time course
  Th-T fluorescence, mean of three wells: 3.575
Supplementary Fig. 47 source data, measurement M49 of time course
  Th-T fluorescence, mean of three wells: 3.594
Supplementary Fig. 47 source data, measurement M50 of time course
  Th-T fluorescence, mean of three wells: 3.623
Supplementary Fig. 47 source data, measurement M51 of time course
  Th-T fluorescence, mean of three wells: 3.626
Supplementary Fig. 47 source data, measurement M52 of time course
  Th-T fluorescence, mean of three wells: 3.602
Supplementary Fig. 47 source data, measurement M53 of time course
  Th-T fluorescence, mean of three wells: 3.622
Supplementary Fig. 47 source data, measurement M54 of time course
  Th-T fluorescence, mean of three wells: 3.589
Supplementary Fig. 47 source data, measurement M55 of time course
  Th-T fluorescence, mean of three wells: 3.592
Supplementary Fig. 47 source data, measurement M56 of time course
  Th-T fluorescence, mean of three wells: 3.6022
Measurement M1
  Th-T assay plate reading, mean of three wells (Supplementary Fig. 47): 0.291
Measurement M2
  Th-T assay plate reading, mean of three wells (Supplementary Fig. 47): 0.3102
Measurement M3
  Th-T assay plate reading, mean of three wells (Supplementary Fig. 47): 0.3462
Measurement M4
  Th-T assay plate reading, mean of three wells (Supplementary Fig. 47): 0.3847
Measurement M5
  Th-T assay plate reading, mean of three wells (Supplementary Fig. 47): 0.4026
Measurement M6
  Th-T assay plate reading, mean of three wells (Supplementary Fig. 47): 0.4778
Measurement M7
  Th-T assay plate reading, mean of three wells (Supplementary Fig. 47): 0.5127
Measurement M8
  Th-T assay plate reading, mean of three wells (Supplementary Fig. 47): 0.5767
Measurement M9
  Th-T assay plate reading, mean of three wells (Supplementary Fig. 47): 0.6534
Measurement M10
  Th-T assay plate reading, mean of three wells (Supplementary Fig. 47): 0.7067
Measurement M11
  Th-T assay plate reading, mean of three wells (Supplementary Fig. 47): 0.7325
Measurement M12
  Th-T assay plate reading, mean of three wells (Supplementary Fig. 47): 0.7635
Measurement M13
  Th-T assay plate reading, mean of three wells (Supplementary Fig. 47): 0.7892
Measurement M14
  Th-T assay plate reading, mean of three wells (Supplementary Fig. 47): 0.8105
Measurement M15
  Th-T assay plate reading, mean of three wells (Supplementary Fig. 47): 0.8372
Measurement M16
  Th-T assay plate reading, mean of three wells (Supplementary Fig. 47): 0.8682
Reading M17, Supplementary Fig. 47 source data
  Th-T fluorescence, mean of three wells: 0.9169
Reading M18, Supplementary Fig. 47 source data
  Th-T fluorescence, mean of three wells: 0.9995
Reading M19, Supplementary Fig. 47 source data
  Th-T fluorescence, mean of three wells: 1.135
Reading M20, Supplementary Fig. 47 source data
  Th-T fluorescence, mean of three wells: 1.37
Reading M21, Supplementary Fig. 47 source data
  Th-T fluorescence, mean of three wells: 1.709
Reading M22, Supplementary Fig. 47 source data
  Th-T fluorescence, mean of three wells: 2.121
Reading M23, Supplementary Fig. 47 source data
  Th-T fluorescence, mean of three wells: 2.518
Reading M24, Supplementary Fig. 47 source data
  Th-T fluorescence, mean of three wells: 2.859
Reading M25, Supplementary Fig. 47 source data
  Th-T fluorescence, mean of three wells: 3.1034
Reading M26, Supplementary Fig. 47 source data
  Th-T fluorescence, mean of three wells: 3.2675
Reading M27, Supplementary Fig. 47 source data
  Th-T fluorescence, mean of three wells: 3.339
Reading M28, Supplementary Fig. 47 source data
  Th-T fluorescence, mean of three wells: 3.364
Reading M29, Supplementary Fig. 47 source data
  Th-T fluorescence, mean of three wells: 3.378
Reading M30, Supplementary Fig. 47 source data
  Th-T fluorescence, mean of three wells: 3.446
Reading M31, Supplementary Fig. 47 source data
  Th-T fluorescence, mean of three wells: 3.431
Reading M32, Supplementary Fig. 47 source data
  Th-T fluorescence, mean of three wells: 3.47
Reading M33, Supplementary Fig. 47 source data
  Th-T fluorescence, mean of three wells: 3.448
Reading M34, Supplementary Fig. 47 source data
  Th-T fluorescence, mean of three wells: 3.489
Reading M35, Supplementary Fig. 47 source data
  Th-T fluorescence, mean of three wells: 3.5187
Reading M36, Supplementary Fig. 47 source data
  Th-T fluorescence, mean of three wells: 3.503
Time course, reading M57
  Th-T fluorescence, mean of three wells: 3.603
Time course, reading M58
  Th-T fluorescence, mean of three wells: 3.607
Time course, reading M59
  Th-T fluorescence, mean of three wells: 3.578
Time course, reading M60
  Th-T fluorescence, mean of three wells: 3.583
Time course, reading M61
  Th-T fluorescence, mean of three wells: 3.605
Time course, reading M62
  Th-T fluorescence, mean of three wells: 3.61
Time course, reading M63
  Th-T fluorescence, mean of three wells: 3.6015
Time course, reading M64
  Th-T fluorescence, mean of three wells: 3.57
Time course, reading M65
  Th-T fluorescence, mean of three wells: 3.572
Time course, reading M66
  Th-T fluorescence, mean of three wells: 3.5992
Time course, reading M67
  Th-T fluorescence, mean of three wells: 3.63
time-course reading M97, Supplementary Fig. 47 source data
  Th-T fluorescence, mean of three wells: 3.5286
time-course reading M98, Supplementary Fig. 47 source data
  Th-T fluorescence, mean of three wells: 3.531
time-course reading M99, Supplementary Fig. 47 source data
  Th-T fluorescence, mean of three wells: 3.498
time-course reading M100, Supplementary Fig. 47 source data
  Th-T fluorescence, mean of three wells: 3.513
time-course reading M101, Supplementary Fig. 47 source data
  Th-T fluorescence, mean of three wells: 3.502
time-course reading M102, Supplementary Fig. 47 source data
  Th-T fluorescence, mean of three wells: 3.488
time-course reading M103, Supplementary Fig. 47 source data
  Th-T fluorescence, mean of three wells: 3.486
time-course reading M104, Supplementary Fig. 47 source data
  Th-T fluorescence, mean of three wells: 3.491
time-course reading M105, Supplementary Fig. 47 source data
  Th-T fluorescence, mean of three wells: 3.477
time-course reading M106, Supplementary Fig. 47 source data
  Th-T fluorescence, mean of three wells: 3.476
time-course reading M107, Supplementary Fig. 47 source data
  Th-T fluorescence, mean of three wells: 3.493
time-course reading M108, Supplementary Fig. 47 source data
  Th-T fluorescence, mean of three wells: 3.51
time-course reading M109, Supplementary Fig. 47 source data
  Th-T fluorescence, mean of three wells: 3.4898
time-course reading M110, Supplementary Fig. 47 source data
  Th-T fluorescence, mean of three wells: 3.516
time-course reading M111, Supplementary Fig. 47 source data
  Th-T fluorescence, mean of three wells: 3.513
time-course reading M112, Supplementary Fig. 47 source data
  Th-T fluorescence, mean of three wells: 3.526
time-course reading M113, Supplementary Fig. 47 source data
  Th-T fluorescence, mean of three wells: 3.459
time-course reading M114, Supplementary Fig. 47 source data
  Th-T fluorescence, mean of three wells: 3.543
time-course reading M115, Supplementary Fig. 47 source data
  Th-T fluorescence, mean of three wells: 3.464
time-course reading M116, Supplementary Fig. 47 source data
  Th-T fluorescence, mean of three wells: 3.458

— publication PMC7156458, “Synthetic biology based construction of biological activity-related library of fungal decalin-containing diterpenoid pyrones” (Nature Communications, 2020)
